Where “and” joins values, the source holds several entries; their conditions need not be identical. Equal values may be shown once.
Test system: KRAS PDC multicell spheroid viability
Assay: Anticancer human tumor 825966-067-R-J1-PDC patient-derived colon carcinoma cell line growth inhibition [KRAS2]
Details: for viability, T/C: stronger effect = lower value
Summary of the method: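 KRAS-mutant tumor cells were grown as spheroids with HUVEC endothelial cells and human MSCs as stroma. Targeted agents were tested alone and with KRAS pathway inhibitors. Doses started at or near clinical Cmax, or 10 microM, descending half-log.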

[1] = curve of first compound, second compound 0.1 µM
[2] = curve of first compound, second compound 0.316 µM
[3] = curve of first compound, second compound 1 µM
[4] = curve of first compound, second compound 3.16 µM
[5] = curve of first compound, second compound 10 µM
[6] = second compound 0.1 µM, first compound 0.0316 µM
[7] = second compound 0.1 µM, first compound 0.1 µM
[8] = second compound 0.1 µM, first compound 0.316 µM
[9] = second compound 0.1 µM, first compound 1 µM
[10] = second compound 0.1 µM, first compound 3.16 µM
[11] = second compound 0.1 µM, first compound 10 µM
[12] = second compound 0.316 µM, first compound 0.0316 µM
[13] = second compound 0.316 µM, first compound 0.1 µM
[14] = second compound 0.316 µM, first compound 0.316 µM
[15] = second compound 0.316 µM, first compound 1 µM
[16] = second compound 0.316 µM, first compound 3.16 µM
[17] = second compound 0.316 µM, first compound 10 µM
[18] = second compound 1 µM, first compound 0.0316 µM
[19] = second compound 1 µM, first compound 0.1 µM
[20] = second compound 1 µM, first compound 0.316 µM
[21] = second compound 1 µM, first compound 1 µM
[22] = second compound 1 µM, first compound 3.16 µM
[23] = second compound 1 µM, first compound 10 µM
[24] = second compound 3.16 µM, first compound 0.0316 µM
[25] = second compound 3.16 µM, first compound 0.1 µM
[26] = second compound 3.16 µM, first compound 0.316 µM
[27] = second compound 3.16 µM, first compound 1 µM
[28] = second compound 3.16 µM, first compound 3.16 µM
[29] = second compound 3.16 µM, first compound 10 µM
[30] = second compound 10 µM, first compound 0.0316 µM
[31] = second compound 10 µM, first compound 0.1 µM
[32] = second compound 10 µM, first compound 0.316 µM
[33] = second compound 10 µM, first compound 1 µM
[34] = second compound 10 µM, first compound 3.16 µM
[35] = second compound 10 µM, first compound 10 µM
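Note: spheroids exposed to compounds for 7 days.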
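Throughout, for viability, T/C: 100% = DMSO vehicle control viability.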

`COc1cc(Nc2ncc3c(n2)-c2ccc(Cl)cc2C(c2c(F)cccc2OC)=NC3)ccc1C(=O)O` + CC1OCC2(CCN(c3cnc(Sc4ccnc(N)c4Cl)c(N)n3)CC2)C1N was tested, and the IC50 [1] was over 10 µM, the IC50 [2] was over 10 µM and the IC50 [3] was over 10 µM. The IC50 [4] was over 10 µM, the IC50 [5] was under 0.0316 µM and the viability, T/C [6] was 132%. It also gave a viability, T/C [7] of 144%, a viability, T/C [8] of 125% and a viability, T/C [9] of 154%. The viability, T/C [10] was 154%, the viability, T/C [11] was 135% and the viability, T/C [12] was 127%. For the same compound, the viability, T/C [13] was 111%, the viability, T/C [14] was 147% and the viability, T/C [15] was 143%. For the same compound, the viability, T/C [16] was 154%, the viability, T/C [17] was 133% and the viability, T/C [18] was 129%. The viability, T/C [19] was 145%, the viability, T/C [20] was 141% and the viability, T/C [21] was 122%. For the same compound, the viability, T/C [22] was 119%, the viability, T/C [23] was 103% and the viability, T/C [24] was 64.6%. The viability, T/C [25] was 127%, the viability, T/C [26] was 107% and the viability, T/C [27] was 74.1%. For the same compound, the viability, T/C [28] was 101%, the viability, T/C [29] was 123% and the viability, T/C [30] was 14.9%. It also gave a viability, T/C [31] of 10.9%, a viability, T/C [32] of 22% and a viability, T/C [33] of 20.2%. For the same compound, the viability, T/C [34] was 18.5% and the viability, T/C [35] was 39.6%.
`CC(C)n1nc(-c2ccc3oc(N)nc3c2)c2c(N)ncnc21` + C=CC(=O)N1CCN(c2nc(OCC3CCCN3C)nc3c2CCN(c2cccc4cccc(C)c24)C3)CC1CC#N was tested, and the IC50 (curve of first compound, second compound 0.0316 µM) was over 0.1 µM, the IC50 [1] was over 0.1 µM and the IC50 [2] was over 0.1 µM. It also gave an IC50 [3] of over 0.1 µM, an IC50 [4] of 0.00907 µM and a viability, T/C (second compound 0.0316 µM, first compound 0.000316 µM) of 111%. For the same compound, the viability, T/C (second compound 0.0316 µM, first compound 0.001 µM) was 86.4%, the viability, T/C (second compound 0.0316 µM, first compound 0.00316 µM) was 116% and the viability, T/C (second compound 0.0316 µM, first compound 0.01 µM) was 153%. It also gave a viability, T/C (second compound 0.0316 µM, first compound 0.0316 µM) of 113%, a viability, T/C (second compound 0.0316 µM, first compound 0.1 µM) of 141% and a viability, T/C (second compound 0.1 µM, first compound 0.000316 µM) of 81.6%. The viability, T/C (second compound 0.1 µM, first compound 0.001 µM) was 106%, the viability, T/C (second compound 0.1 µM, first compound 0.00316 µM) was 119% and the viability, T/C (second compound 0.1 µM, first compound 0.01 µM) was 162%. The viability, T/C [6] was 113%, the viability, T/C [7] was 108% and the viability, T/C (second compound 0.316 µM, first compound 0.000316 µM) was 92%. It also gave a viability, T/C (second compound 0.316 µM, first compound 0.001 µM) of 97.3%, a viability, T/C (second compound 0.316 µM, first compound 0.00316 µM) of 129% and a viability, T/C (second compound 0.316 µM, first compound 0.01 µM) of 154%. The viability, T/C [12] was 115%, the viability, T/C [13] was 94.7% and the viability, T/C (second compound 1 µM, first compound 0.000316 µM) was 89.3%. The viability, T/C (second compound 1 µM, first compound 0.001 µM) was 108%, the viability, T/C (second compound 1 µM, first compound 0.00316 µM) was 105% and the viability, T/C (second compound 1 µM, first compound 0.01 µM) was 154%. The viability, T/C [18] was 98.7%, the viability, T/C [19] was 85.2% and the viability, T/C (second compound 3.16 µM, first compound 0.000316 µM) was 106%. For the same compound, the viability, T/C (second compound 3.16 µM, first compound 0.001 µM) was 84.9%, the viability, T/C (second compound 3.16 µM, first compound 0.00316 µM) was 116% and the viability, T/C (second compound 3.16 µM, first compound 0.01 µM) was 39.9%. The viability, T/C [24] was 64.4% and the viability, T/C [25] was 31.2%.
With `COC(=O)c1ccc2c(C(=Nc3ccc(N(C)C(=O)CN4CCN(C)CC4)cc3)c3ccccc3)c(O)[nH]c2c1` + COc1cc2nc(C)nc(NC(C)c3cc(N)cc(C(F)(F)F)c3)c2cc1OC1CCOC1 the IC50 [1] was 1.67 µM, the IC50 [2] was 1.57 µM and the IC50 [3] was 0.836 µM. For the same compound, the IC50 [4] was 0.592 µM, the IC50 [5] was under 0.0316 µM and the viability, T/C [6] was 89.6%. For the same compound, the viability, T/C [7] was 95.6%, the viability, T/C [8] was 81.4% and the viability, T/C [9] was 92.9%. It also gave a viability, T/C [10] of 0.3%, a viability, T/C [11] of 0.16% and a viability, T/C [12] of 94.4%. For the same compound, the viability, T/C [13] was 79.9%, the viability, T/C [14] was 82.4% and the viability, T/C [15] was 81.8%. It also gave a viability, T/C [16] of 0.33%, a viability, T/C [17] of 0.13% and a viability, T/C [18] of 88.1%. The viability, T/C [19] was 98.1%, the viability, T/C [20] was 92.3% and the viability, T/C [21] was 42.1%. The viability, T/C [22] was 0.16%, the viability, T/C [23] was 0.13% and the viability, T/C [24] was 95%. For the same compound, the viability, T/C [25] was 103%, the viability, T/C [26] was 101% and the viability, T/C [27] was 8.39%. It also gave a viability, T/C [28] of 0.1%, a viability, T/C [29] of 2% and a viability, T/C [30] of 9.43%. It also gave a viability, T/C [31] of 10.3%, a viability, T/C [32] of 1.07% and a viability, T/C [33] of 0.34%. The viability, T/C [34] was 0.13% and the viability, T/C [35] was 0.58%.
`COc1cc2nccc(Oc3ccc(NC(=O)C4(C(=O)Nc5ccc(F)cc5)CC4)cc3)c2cc1OC` + CC1OCC2(CCN(c3cnc(Sc4ccnc(N)c4Cl)c(N)n3)CC2)C1N showed an IC50 [1] of 1.61 µM, an IC50 [2] of 1.71 µM and an IC50 [3] of 1.69 µM. It also gave an IC50 [4] of 1.61 µM, an IC50 [5] of under 0.0316 µM and a viability, T/C [6] of 89.8%. For the same compound, the viability, T/C [7] was 105%, the viability, T/C [8] was 94.7% and the viability, T/C [9] was 79.9%. For the same compound, the viability, T/C [10] was 7.16%, the viability, T/C [11] was 8.74% and the viability, T/C [12] was 97%. For the same compound, the viability, T/C [13] was 102%, the viability, T/C [14] was 85.8% and the viability, T/C [15] was 87.1%. It also gave a viability, T/C [16] of 5.92%, a viability, T/C [17] of 10% and a viability, T/C [18] of 109%. It also gave a viability, T/C [19] of 98.1%, a viability, T/C [20] of 78.6% and a viability, T/C [21] of 85.7%. It also gave a viability, T/C [22] of 7.28%, a viability, T/C [23] of 5.65% and a viability, T/C [24] of 83.5%. It also gave a viability, T/C [25] of 87%, a viability, T/C [26] of 90.3% and a viability, T/C [27] of 81.6%. For the same compound, the viability, T/C [28] was 4.94%, the viability, T/C [29] was 4.14% and the viability, T/C [30] was 45.5%. It also gave a viability, T/C [31] of 48.5%, a viability, T/C [32] of 43.4% and a viability, T/C [33] of 23.1%. For the same compound, the viability, T/C [34] was 1.1% and the viability, T/C [35] was 0.8%.
With `COc1cc2nc(C)nc(NC(C)c3cc(N)cc(C(F)(F)F)c3)c2cc1OC1CCOC1` (configuration not stated) the IC50 (compound alone, run of 08/26/2021) was 5.81 µM [middle of 5 runs] and the IC50 (compound alone, run of 09/02/2021) was > 10 µM and 7.54 µM.

— PubChem BioAssay AID1963865 (Molecular Pharmacology Branch, DTP, NCI, 2024)
